Where two headings read alike, the source gives them in different places.
Key:
[1] = system: P. falciparum late stage (stages IV-V) gametocytes; assay: P. falciparum late stage gametocyte ATP depletion assay (Pf GC-ATP); settings: 1: YES; 0: NO
[2] = system: P. berghei ookinete development; settings: for Is compound selective in assay? Pb ODA active?: 1: YES, 0: NO; for % inhibition, Replicate A / % inhibition, Replicate B: primary screen at 1 μM
[3] = system: HepG2 cells; assay: HepG2 cytotoxicity assay; settings: for Unified cytotox: HepG2 cytotoxicity unified across the three screens; for IC50: read-out: HepG2 cytotoxicity assay IC50, dose response confirmation; for HepG2 cytoxicity: value reported with the Pb ODA screen, this manuscript
How it was run: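 Here viability after a 48 h compound incubation (37°C, humidified 5% CO2) is measured by fluorescence and expressed as percent inhibition, with doxorubicin at 50 μM and DMSO as the bounding controls.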

[4] = system: 3D7-strain P. falciparum asexual parasites; assay: P. falciparum asexual growth inhibition assay (Pf GIA); type: cell-based, Plasmodium falciparum; settings: dose response confirmation; read-out: Pf asexual growth inhibition assays IC50
How it was run: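 Read-out was lactate dehydrogenase activity measured by absorbance at 650 nm after freezing and thawing, against 50 μM chloroquine and DMSO controls. Before that, asexual 3D7 cultures (0.25% parasitemia, 2% hematocrit) had 72 h dose-response compound exposure at 37°C in 5% CO2/5% O2/90% N2; three independent replicates averaged.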

[5] = system: P. falciparum female gametocytes; set-up: method as in Miguel-Blanco et al 2017; settings: TCAMS screen comparison; ref Miguel-Blanco et al 2017; read-out: Pf FGAA IC50; cited from earlier work
[6] = system: HepG2 cells; settings: cited from earlier work
[7] = system: P. falciparum female gametocytes; assay: P. falciparum female gametogenesis assay (Pf FGAA); settings: 1: YES; 0: NO
[8] = system: P. falciparum late stage (stages IV-V) gametocytes; set-up: method as in Almela et al 2016; settings: TCAMS screen comparison; ref Almela et al 2016; read-out: Pf GCT ATP IC50; cited from earlier work
[9] = read-out: Pb ODA IC50, this manuscript
[10] = read-out: Pb Ookinete development assay IC50, dose response confirmation
[11] = value reported with the Pf FGAA screen, ref Miguel-Blanco et al 2017
[12] = value reported with the Pf GCT ATP screen, ref Almela et al 2016

| SMILES | Is compound selective in assay? Pf GC-ATP active? [1] | Is compound selective in assay? Pb ODA active? [2] | % inhibition, Replicate A [2] [%] | % inhibition, Replicate B [2] [%] | IC50 [2, 9] [µM] | IC50 [2, 10] [µM] | Unified cytotox [3] [µM] | IC50 [3] [µM] | HepG2 cytoxicity [3] [µM] | IC50 [4] [µM] | IC50 [5] [µM] | HepG2 cytoxicity [6, 11] [µM] | HepG2 cytoxicity [6, 12] [µM] | Is compound selective in assay? Pf FGAA active? [7] | IC50 [8] [µM] |
| --- | --- | --- | --- | --- | --- | --- | --- | --- | --- | --- | --- | --- | --- | --- | --- |
| C=CCC1OC(=O)c2cc(OC)cc(OC)c21 (stereo not drawn) [TCMDC-138677] | 0 (0: NO) | 0 (0: NO) | 53.73 | 47.60 | 2.36 | 2.36 | 2.43 | 2.57 | 2.57 | 0.447 | 0.36 | 2.29 | <1.56 | 0 (0: NO) | 0.6 |
| ON=C1CCc2cc(-c3cc(-c4ccc(OC5CCNCC5)cc4)oc3-c3ccncc3)ccc21 [TCMDC-141381] | 1 (1: YES) | 0 (0: NO) | 75.99 | 61.54 | 1.41 | 1.41 | 5.92 | 5.25 | 5.25 | 0.123 | 0.2 | 5.01 | 7.5 | 1 (1: YES) | 0.27 |
| O=C(O)CCSSc1cccc[n+]1[O-] [TCMDC-141973] | 1 (1: YES) | 1 (1: YES) | 62.58 | 47.23 | 1.91 | 1.91 | 19.25 | 30.9 | 30.90 | 1.65 | 0.04 | 19.05 | 7.8 | 1 (1: YES) | 0.27 |
